Assay results from patent publication US9283297B2, “Sanitary article comprising a microbe-inhibiting composition” (SCA HYGIENE PRODUCTS AB, priority 2006, dated 2016).
“And” between values parts separate entries of the source, which are not always exact repeats. Identical values can stand only once.

What was measured:
C. glabrata = test: Example 1 Screening II: Lactobacillus cell-free filtrate, turbidity; assay type: cell-based, Candida glabrata; details: three times concentrated
Text: (§1) Clinical isolates of Candida albicans and Candida glabrata were used as test strains. These were isolated from the vagina of women with vaginal candidiasis and from healthy females. Suspensions of lactobacilli grown in dMRSs broth (MRS broth without addition of sodium acetate) were centrifuged and sterile filtered. The filtrate is henceforth called Lactobacillus Cell-free Filtrate, LCF. A specified volume was transferred to wells of a micro titre plate and was let to air dry and thereafter resuspended in sterile distilled water to a concentration three times higher and transferred to 96-wells micro titre plates. Candida was added to all vials (three isolates of C. albicans and C. glabrata, respectively, were used). The inhibition was evaluated by visual observation of turbidity and graduated by two persons using a template on a scale from five to zero. The wells containing strong growth of Candida sp. in pure dMRSs-broth was graduated as five, while wells with no visual growth were graduated as zero.

C. albicans = test: as above; assay type: cell-based, Candida albicans; details: three times concentrated
Text: as §1

Candida albicans 702 = test: Test 4: agar plug test, zones with no growth of Candida; assay type: cell-based; details: for Zones around the plugs with no growth of Candida, Plug with LB931: ~10^7 LB 931 per plug
Text: The purpose of this test was to evaluate the enhanced Candida inhibition from Na-acetate in combination with growing cells of Lactobacillus plantarum LB 931. Two plates were made with M17 agar and two with MRS agar. MRS medium (developed by De Man, Rogosa and Sharpe), is a growth medium commonly used for Lactobacillus. MRS agar from Merck contains 5 g sodium acetate per litre agar. M17 (Oxoid) is a similar commercial substrate for Lactobacillus but without the addition of sodium acetate. The agars were prepared as described on the packages. Lactobacillus plantarum LB931 was cultivated in MRS broth in 37° C. with 5% CO2 for 24 hours. Candida albicans 702 was cultivated in M17 broth at 37° C. for 24 hours. Holes (Ø10 mm) were punched in the plates and filled with 250 μl plugs of agar mixtures containing ˜10^7 LB 931 in MRS agar). The plates were left for 30 minutes and then incubated 24 hours at 37° C. with 5% CO2. Overnight culture of C. albicans in M17 broth was diluted 10 times and 100 μl was spread on the surface of each plate. The plates were then incubated for 24 hours at 37° C. As controls, holes (Ø10 mm) were filled with only MRS agar. The plates were evaluated in respect to Candida growth inhibition. Zones around the plugs with no growth of Candida were measured (Ø mm).

## Lactobacillus fermentum Ess-1
C. glabrata
  inhibition of growth of C. glabrata: comprehensive capacity to inhibit growth of Candida
C. albicans
  inhibition of growth of C. albicans: comprehensive capacity to inhibit growth of Candida

## Lactobacillus plantarum LB 931 [LB931]
Candida albicans 702; M17 agar in the Petri dish (without sodium acetate)
  Zones around the plugs with no growth of Candida, Plug with LB931: 0 Ø mm
Candida albicans 702; M17 agar plates (without sodium acetate)
  Candida growth inhibition, in words: substantially no inhibition of Candida
Candida albicans 702; MRS agar in the Petri dish (contains 5 g sodium acetate per litre)
  Zones around the plugs with no growth of Candida, Plug with LB931: 18.8 Ø mm and 18.1 Ø mm
Candida albicans 702; MRS agar plates (sodium acetate)
  Candida growth inhibition zones, in words: clear zones
